In the supplement of paper PMC10307832:

Tests used:
Assay in all cases: relative viability (nuclei count vs DMSO), 5 days (fraction); higher = more cells survive
Lapatinib + Vorinostat = compound: CS(=O)(=O)CCNCc1ccc(-c2ccc3ncnc(Nc4ccc(OCc5cccc(F)c5)c(Cl)c4)c3c2)o1 [Lapatinib] + O=C(CCCCCCC(=O)Nc1ccccc1)NO [Vorinostat] (partner 1 µM)
In short: (§1)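 Values are medians from duplicate plates. Each reflects relative viability, defined as the nuclei count of treated wells over that of vehicle wells. Lung cancer cell lines in 1536-well plates were pin-tool dosed one day after seeding with one drug alone or with a fixed anchor-drug dose plus five library-drug doses (not always all listed) in √10 steps, then fixed, stained and imaged at 4× after 5 days.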

Wnt-C59 + Luminespib = compound: CC1=NC=CC(=C1)C2=CC=C(C=C2)CC(=O)NC3=CC=C(C=C3)C4=CN=CC=C4 [Wnt-C59] + CCNC(=O)c1noc(-c2cc(C(C)C)c(O)cc2O)c1-c1ccc(CN2CCOCC2)cc1 [Luminespib] (partner 0.01 µM)
In short: as §1

Lapatinib + Dasatinib = compound: CS(=O)(=O)CCNCc1ccc(-c2ccc3ncnc(Nc4ccc(OCc5cccc(F)c5)c(Cl)c4)c3c2)o1 [Lapatinib] + Cc1nc(Nc2ncc(C(=O)Nc3c(C)cccc3Cl)s2)cc(N2CCN(CCO)CC2)n1 [Dasatinib] (partner 0.075 µM)
In short: as §1

Lapatinib + Pemetrexed = compound: CS(=O)(=O)CCNCc1ccc(-c2ccc3ncnc(Nc4ccc(OCc5cccc(F)c5)c(Cl)c4)c3c2)o1 [Lapatinib] + Nc1nc2[nH]cc(CCc3ccc(C(=O)N[C@@H](CCC(=O)O)C(=O)O)cc3)c2c(=O)[nH]1 [Pemetrexed] (partner 0.2 µM)
In short: as §1

| Cell Line | relative viability (Lapatinib + Vorinostat; first compound 0.02 µM) | relative viability (Lapatinib + Vorinostat; first compound 0.06325 µM) | relative viability (Lapatinib + Vorinostat; first compound 0.6325 µM) | relative viability (Lapatinib + Vorinostat; first compound 2 µM) | relative viability (Wnt-C59 + Luminespib; first compound 0.001 µM) | relative viability (Wnt-C59 + Luminespib; first compound 0.01 µM) | relative viability (Wnt-C59 + Luminespib; first compound 0.03162 µM) | relative viability (Wnt-C59 + Luminespib; first compound 0.1 µM) | relative viability (Lapatinib + Dasatinib; first compound 0.02 µM) | relative viability (Lapatinib + Dasatinib; first compound 0.06325 µM) | relative viability (Lapatinib + Dasatinib; first compound 0.2 µM) | relative viability (Lapatinib + Dasatinib; first compound 0.6325 µM) | relative viability (Lapatinib + Dasatinib; first compound 2 µM) | relative viability (Lapatinib + Pemetrexed; first compound 0.06325 µM) | relative viability (Lapatinib + Pemetrexed; first compound 0.2 µM) | relative viability (Lapatinib + Pemetrexed; first compound 0.6325 µM) | relative viability (Lapatinib + Pemetrexed; first compound 2 µM) | relative viability (Lapatinib + Vorinostat; first compound 0.2 µM) | relative viability (Lapatinib + Pemetrexed; first compound 0.02 µM) |
| --- | --- | --- | --- | --- | --- | --- | --- | --- | --- | --- | --- | --- | --- | --- | --- | --- | --- | --- | --- |
| ABC-1 | 0.929 | 1.02 | 1 | 1.18 | 1.18 | 0.807 | 0.736 | 0.598 | 0.538 | 0.584 | 0.513 | 0.662 | 0.56 |  |  |  |  |  |  |
| SW 1573 |  | 0.612 | 0.828 | 0.774 | 0.227 | 0.398 | 0.37 | 0.177 | 0.389 | 0.381 | 0.738 | 0.434 | 0.442 | 0.716 | 0.883 | 0.882 | 0.759 | 0.987 |  |
| HCC-827 | 0.76 | 0.868 | 0.802 | 0.869 | 0.7 | 0.693 | 0.645 | 0.698 | 0.334 | 0.313 | 0.281 | 0.377 | 0.155 | 0.263 | 0.285 | 0.239 | 0.202 | 0.706 | 0.26 |
| 201T | 0.48 | 0.78 | 0.938 | 0.854 | 1.03 | 1.07 | 0.996 | 1.02 | 0.566 | 0.382 | 0.596 | 0.62 | 0.599 | 0.288 | 0.298 | 0.359 | 0.326 | 0.89 | 0.377 |
| HCC-15 |  | 0.779 | 0.858 | 0.693 | 0.399 | 0.297 | 0.287 | 0.369 |  | 0.403 | 0.591 | 0.622 | 0.551 | 0.212 | 0.223 | 0.212 | 0.203 | 0.813 |  |
| NCI-H2347 | 0.501 | 0.629 | 0.689 | 0.547 | 0.565 | 0.339 | 0.498 | 0.877 |  | 0.315 | 0.299 | 0.329 | 0.25 | 0.421 | 0.417 | 0.436 | 0.504 | 0.554 |  |
| NCI-H596 |  | 0.538 | 0.711 | 0.537 | 1.14 | 1.08 | 1.06 | 1.06 |  | 0.521 | 0.621 | 0.573 | 0.486 | 0.505 | 0.531 | 0.504 | 0.494 | 0.606 |  |
| LXF-289 | 0.474 | 0.709 | 0.664 | 0.673 | 0.607 | 0.666 | 0.618 | 0.712 | 0.0714 | 0.116 | 0.224 | 0.273 | 0.179 | 0.901 | 0.884 | 0.844 | 0.768 | 0.83 | 0.891 |
| NCI-H1755 | 0.731 | 0.689 | 0.76 | 0.676 | 0.549 | 0.534 | 0.407 | 0.644 | 0.375 | 0.278 | 0.422 | 0.381 | 0.394 | 0.405 | 0.49 | 0.451 | 0.439 | 0.801 | 0.423 |
| NCI-H2405 |  | 0.833 | 0.997 | 0.91 | 0.762 | 0.809 | 0.7 | 0.842 | 0.215 | 0.181 | 0.208 | 0.164 | 0.232 | 0.977 |  | 1.04 | 1.01 |  |  |
| NCI-H2170 | 0.726 | 0.747 | 0.582 | 0.372 | 0.583 | 0.722 | 0.758 | 0.655 | 0.394 | 0.272 | 0.276 | 0.419 | 0.165 | 0.249 | 0.271 | 0.274 | 0.198 | 0.578 | 0.272 |
| NCI-H1648 |  | 0.271 | 0.587 | 0.287 |  |  |  |  |  |  |  |  |  | 0.62 | 0.789 | 0.636 | 0.64 | 0.389 |  |
| NCI-H2342 | 0.562 | 0.596 | 0.707 | 0.693 | 0.692 | 0.658 | 0.806 | 0.809 | 0.262 | 0.293 | 0.301 | 0.303 | 0.263 | 0.712 | 0.723 | 0.776 | 0.714 | 0.625 | 0.576 |
| HARA |  | 0.452 | 0.467 | 0.427 | 0.662 | 0.557 | 0.721 | 0.65 |  | 0.195 | 0.244 | 0.242 | 0.19 | 0.225 | 0.274 | 0.277 | 0.224 | 0.443 | 0.222 |
| NCI-H1563 |  |  |  |  | 0.498 | 0.539 | 0.565 | 0.528 | 0.505 | 0.405 | 0.425 | 0.491 | 0.435 | 0.862 | 0.652 | 0.843 | 0.666 |  | 0.651 |
| HCC-44 | 1.07 | 1.11 | 1.16 | 0.916 | 1.18 | 1.2 | 0.897 | 0.997 |  |  |  |  |  | 0.653 | 0.651 | 0.614 | 0.685 | 1.16 | 0.681 |
| HCC-366 |  | 0.275 | 0.352 | 0.202 |  |  |  |  |  | 0.493 | 0.572 | 0.722 | 0.544 | 0.239 | 0.187 | 0.149 | 0.118 | 0.391 |  |
| NCI-H727 | 1.17 |  | 1.45 | 1.02 | 0.332 |  | 0.857 | 0.526 |  |  | 0.317 | 0.338 | 0.359 |  |  |  |  | 1.17 |  |
| NCI-H1623 |  |  |  |  | 0.594 | 0.413 | 0.544 | 0.481 | 0.541 | 0.491 |  | 0.578 | 0.21 |  |  |  |  |  |  |
| HCC-78 |  | 0.318 | 0.388 | 0.375 |  |  |  |  |  | 0.42 | 0.333 | 0.464 | 0.411 | 0.832 | 0.882 | 0.841 | 0.936 | 0.39 |  |
